The results in this text go back to patent US20260294922A1, “Inhibitors of JUN N-Terminal Kinases (JNK1, JNK2, and/or JNK3) and Mitogen-Activated Protein Kinases (MAPK8, MAPK9, and/or MAPK10) and Methods of Using Same” (Baylor College of Medicine, priority 2023, published 2026).

Series [1] has as its system immortalized human endometriotic epithelial cells (iHEEC). The experiment in a line: Phosphorylation of JNK and Jun in iHEEC. The class given is cell-based. The source says: FIG. 26A depicts the effects of CDD-2728 and CDD-3013 on phosphorylation of the JNK enzyme itself (i.e., representing MEK4 inhibition) and phosphorylation of pSer63 and pSer73 on the transcription factor Jun in immortalized human endometriotic epithelial cells (iHEEC). The HEEC cells are a well characterized cell line that are relevant for the evaluation of inflammatory endpoints and measures of epithelial-to-mesenchymal transitions (EMT). […] This is consistent with the potency relationships of CDD-2728 relative to bentamapimod observed in cytokine gene expression described above in iHEEC cells and primary human stromal endometriotic cells. […] SP600125 has been frequently described as a poorly-selective JNK-I but in this context provides additional confirmation of inhibition of the JNK target kinase for CDD-2728. […] This adds further support to the critical role of JNK-1 to the therapeutic effect of the JNK inhibitors of the disclosure.

For the next series, the target named is T1, CLK3 (Homo sapiens, UniProt P49761).
T1 construct: purchased ThermoFisher (SelectScreen, outsourced service)
The series can be described thus: ThermoFisher SelectScreen, CLK3. The series is classed as binding.

Another series relates to iHEEC. The series can be described thus: Beta-catenin expression in IL-1β-treated iHEEC. The class given is cell-based, human. Also noted: beta-catenin expression at cell contact points: dose or concentration left out as unconfirmed. The procedure: FIGS. 29A-29C depict the impact of JNK inhibition on the cellular expression of beta-catenin located at the cell surface and throughout the cytoplasm of iHEEC, wherein HEEC cells were treated with vehicle (FIG. 29A), IL-1β (FIG. 29B), or IL-1β and […] CDD-2728 (FIG. 29C). The increased cytoplasmic and plasma membrane expression of β-catenin following exposure to IL-1β supports the role of β-catenin in facilitating epithelial-to-mesenchymal transdifferentiation. The cellular morphology is consistent with that of columnar epithelial cells. iHEEC were treated with JNK-I or vehicle for 30 min before addition of IL-1β, followed by incubation of cells for another 15 minutes. Addition of IL-1β over this short time course caused a dramatic change in the expression of beta-catenin in iHEEC endometriotic epithelial cells, and a noticeable change in phospho-JNK throughout the cytoplasm, induced by IL-1β. Beta catenin expression at contact points between cells is increased by IL-1β, and inhibited by CDD-2728.

For the next series, the system named is HepG2 cells. The experiment in a line: HepG2 cell viability (ATP consumption). The following applies: CDD-2575 25 μM; CDD-2728, CDD-2624 up to 75.
Series [2] has as its system primary human endometriotic stromal cells (patient 50). The series can be described thus: IL-1β-stimulated pro-inflammatory gene expression in primary endometriotic stromal cells, patient 50. The series is classed as cell-based. The following applies: patient 50, relative to CDD-939. The source says:
FIGS. 14G-14H represent responses of primary human endometriotic stromal cells [from the endometrioma lesion] from endometriosis patient “50”.
FIGS. 15A-15H provide replicate results of the response of primary human endometriotic stromal cells (derived from the lesions) obtained from endometriosis patient “50”. In each example. […] In each example, CDD-2728 inhibited IL-1β-stimulated pro-inflammatory biomarker responses in primary endometriotic stromal cell cultures. Lower concentrations of JNK inhibitors were required to reduce the proinflammatory response of IL-1β in stromal cells than the concentration of JNK-I in 12Z epithelial cells.
Another target tissue of JNK inhibitors in the treatment of endometriosis are endometriotic stromal cells. To further exemplify the relevance of the discoveries of novel JNK inhibitors for endometriosis, stromal cells obtained from the endometriotic lesions of a patient with endometriosis have been cultured. The compliant identifier for this patient is Eosis50. These cells represent stromal cells from an ovarian endometrioma. Similar to culture system described elsewhere herein, the inflammatory environment of peritoneal endometriosis was simulated by the addition of IL-1β and increasing concentrations of either bentamapimod or CDD-2728 were added to these stromal cell cultures. […]

“Also recorded” adds a separate entry of the source.

For orientation: Kd means the concentration at which binding is half-saturated.

T1 sequence (P49761 whole entry): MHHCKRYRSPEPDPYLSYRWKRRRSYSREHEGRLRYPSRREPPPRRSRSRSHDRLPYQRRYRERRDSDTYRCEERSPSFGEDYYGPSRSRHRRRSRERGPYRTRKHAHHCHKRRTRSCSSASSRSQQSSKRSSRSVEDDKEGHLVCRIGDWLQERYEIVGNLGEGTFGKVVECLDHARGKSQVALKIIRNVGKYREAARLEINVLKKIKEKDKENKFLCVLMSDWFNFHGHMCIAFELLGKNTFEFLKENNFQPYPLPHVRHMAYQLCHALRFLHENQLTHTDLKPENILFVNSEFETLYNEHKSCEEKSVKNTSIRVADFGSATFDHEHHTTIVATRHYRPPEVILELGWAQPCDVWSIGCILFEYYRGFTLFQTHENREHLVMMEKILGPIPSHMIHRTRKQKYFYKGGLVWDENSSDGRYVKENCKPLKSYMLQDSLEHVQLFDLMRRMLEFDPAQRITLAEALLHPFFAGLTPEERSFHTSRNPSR
Procedure for HepG2 cells: This assay reflects cell viability. […] To determine if the responses observed in endometriotic epithelial cells and endometriotic stromal cell cultures were cytotoxic, cell viability was performed in HepG2 cells.

Consider `CN(C)C(=O)c1cc(NC(=O)c2cc3c(-c4cnc5[nH]ccc5c4)cccc3s2)ccc1O` [CDD-2728, N-(3-(dimethylcarbamoyl)-4-hydroxyphenyl)-4-(1H-pyrrolo[2,3-b]pyridin-5-yl)benzo[b]thiophene-2-carboxamide], for which, in series [1], the “phosphorylation of JNK1 (P46) and JNK2 (P54)” value is “inhibits phosphorylation of JNK1 (P46) and JNK2 (P54)”; the “phosphorylation of Jun at pSer63 and pSer73” value is on record as “more effectively than CDD-939”. Binding at CLK3 was put at a Kd of 1020 nM. For the same molecule, in the series with iHEEC (short time course, iHEEC), the “cell viability or cell density” value is given as “no apparent changes in cell viability or cell density”. Also, in the series with iHEEC (with IL-1β), the “beta-catenin expression at cell contact points” value is listed as “inhibited”. Moreover, in the series with HepG2 cells, the “effect on HepG2 cell viability / ATP consumption” value was “tolerated (up to 75 μM); also recorded: neither CDD-2624 or CDD-2728 had significant effects on ATP consumption”. Further, in series [2], the “inhibition of IL-6, IL-8, MMP-3 and PTGS2 gene expression” value was “effective inhibitor of IL-6 gene expression; also recorded: more effective inhibitor of the biomarkers IL-8, MMP-3, and PTGS2 gene expression than CDD-939; also recorded: superior efficacy and potency”.
